Source: patent US20150335678A1, “METHOD OF ACTIVATING STEM CELLS IN AN ANIMAL AND THE USE OF CHLORINE DIOXIDE FOR PREPARING MEDICINES FOR ACTIVATING STEM CELLS IN AN ANIMAL” (priority 2012, published 2015)
Marks after values point to notes of the source that are not given here.

How the values were obtained:
wound of rabbit = settings: Jin Wei et al. 2011; cited from earlier work
[1] = system: BrdU-positive (migrating) cells; test: BrdU-positive (migrating) cells in the SVZ region; type: in vivo, Sprague-Dawley rats; settings: for number of BrdU-positive cells in the SVZ region, migration (mean±SD): BrdU twice within 24 hours after model established
Experimental: (§1) Male Sprague-Dawley rats with the age of 12 weeks and weight of 250^˜280 g were used in the experiment after acclimating for a week.
(§2) A middle cerebral artery occlusion model was first established in compliance with the method of Longa E Z et al. (Longa E Z, et al. Reversible middle cerebral artery occlusion without craniectomy in rats. Stroke 20:84-91, 1989). More specifically, 0.36 g/kg of 10% chloral hydrate was administered intraperitoneally to rats which had been fasted for 12 hours (although given free access to water) to anesthetize the rats. Next, a midline incision was made in the neck to expose the right common carotid artery. Then, the internal carotid artery and external carotid artery were separated, the posterior carotid artery, which is a branch of the external carotid artery, and the thyroidea arteria were coagulated and severed, the external carotid artery was ligated at the branch of the lingual artery and maxillary artery, a small puncture was formed in the external carotid artery, 4-0 Nylon suture was passed through the common carotid artery from the puncture, and gradually inserted into the internal carotid artery until there was resistance. The length of the Nylon suture was about 18^˜20 mm from the branch of the common carotid artery. As a result of occluding the middle cerebral artery with Nylon suture, an ischemic state was applied for 2 hours to create a middle cerebral artery occlusion model.
(§3) A cerebral ischemia/reperfusion injury model was established by removing the Nylon suture from the middle cerebral artery of the occlusion model and following reperfusion of blood.
(§4) The first solution was a mixed solution made of sodium chlorite with the concentration of 7.47% and sodium chloride with the concentration of 1.59% with deionized water; the second solution was made of citric acid with the concentration of 16.7% with deionized water. Same volume of solutions were taken out from different vessels with different volumes and mixed up. Allow the solution to mix for 3-5 minutes and dilute it five times with normal saline, and then filter it with 0.22 μm filter membrane of double-deck. The solution was immediately put into injector. The solution was prepared once being used.
(§5) Treatment group (120 rats): A cerebral ischemia/reperfusion injury model was established for the rats already. To administer chlorine dioxide solution everytime that prepared from procedure (3) through carotid artery after the second day the model has established, once a day for total ten days.
Thirty Rats in each group were intraperitoneally injected twice with 50 mg/kg of BrdU within 24 hours after model established. The rats were autopsied on day 7, 14 and 21 after model established for preparation of frozen brain sections. The presence of BrdU-positive cells in the SVZ region was analyzed by immunochemical stain using mouse anti-rat BrdU monoclonal antibody.
BRt(%)=(Bt−St)/(Mt−St)×100

wound = settings: clinical trial report No. NCT01341041, Rhode Island Hospital; cited from earlier work
Helicobacter pylori = test: hp-positive gastric ulcer patients: HP negative conversing, rapid urease test; type: in vivo, human; settings: 30 patients per group
Experimental: (§6) The subjects consisted of 90 gastric ulcer patients (50 male and 40 female) of hp-positive aged from 33 to 75 years old (average age: 41 years old). The subjects were randomly assigned to treatment group and control group with 30 patients in treatment group and 30 in control group 1 and 30 in control group 2 respectively.
(§7) Allow the solution to mix for 3-5 minutes. The capsule that containing activating agent of stem cells was made by injecting the mixed solution into the soft capsule of number 0.
The capsule that containing activating agent of stem cells was administered to the patients in treatment group three times a day and a pill each time; 30 minutes before meals, patients in control group 1 took orally 15 mg colloidal bismuth and 100 mg pectin tinidazole for three times a day. And 20 mg Omeprazole two times a day; patients in control group 2 took orally […] amoxicillin and 500 mg clindamycin three times a day and 20 mg esomeprazole twice a day before meals. Both groups were administered for a consecutive week. To observe the improvement of the clinical symptoms of the three cases two weeks after administration, such as stomachache, nausea and sour regurgitation. […]
Criteria for measuring the effects: the changes of conditions before and after treatment and the time the symptoms disappear were recorded precisely. […]

[2] = system: cerebral ischemia/reperfusion injury model rats; test: Neural function score in cerebral ischemia/reperfusion injury model (Example 3); type: in vivo, Sprague-Dawley rats; settings: for neural function score (median): n=15, scale 0 normal to 5
Experimental: as §1, §2, §3, §4, §5
Neural function scores were evaluated once a day after the ischemia/reperfusion injury model established in the 15 rats per group. The scores of neural function disorders were evaluated using the following criteria in compliance with the method of Longa E Z (Longa E Z, et al. Reversible middle cerebral artery occlusion without craniectomy in rats. Stroke 20:84-91, 1989). The results were shown as median.
1: Contralateral limb bending on infarction focus
2: Contralateral limb on infarction focus becomes asthenic state when tail is pulled backward
3: Turning toward opposite side of infarction focus when tail is pulled
4: Spontaneous turning towards opposite side of infarction focus
5: Loss of spontaneous movement

gastric ulcer = test: hp-positive gastric ulcer patients: symptoms and ulcer healing by gastroscopy (Example 11); type: in vivo, human
Experimental: as §6, §7
The capsule that containing activating agent of stem cells was administered to the patients in treatment group three times a day and a pill each time; 30 minutes before meals, patients in control group 1 took orally 15 mg colloidal bismuth and 100 mg pectin tinidazole for three times a day. And 20 mg Omeprazole two times a day; patients in control group 2 took orally […] amoxicillin and 500 mg clindamycin three times a day and 20 mg esomeprazole twice a day before meals. Both groups were administered for a consecutive week. To observe the improvement of the clinical symptoms of the three cases two weeks after administration, such as stomachache, nausea and sour regurgitation. Gastroscopy and urease test of gastric antral mucosa were conducted after 30 days to observe ulcer healing and eradication of hp.
Criteria for measuring the effects: the changes of conditions before and after treatment and the time the symptoms disappear were recorded precisely. Diagnostic criteria are the followings: 1) complete healing: the symptoms disappear, such as ache, heartburn, nausea, sour regurgitation, abdominal distention; cure of ulceration under a gastroscope and the inflammation is gone; H pylori is negative. 2) Almost healing: subjective symptom disappear, and more than 90% ulceration are healed and the inflammation around is gone. 3) Effective: more than half of the ulcer surface shrink or more than half of ulceration reduced; 4) Ineffective: less than half of the ulceration are healed or haven't been changed, or even the ulcer surface or ulceration increase. To conduct rapid urease test by taking one sample of gastric mucosa at antrum of stomach and gastric body respectively, if the results are negative, it means Hp negative conversing.

## [O][Cl+][O-] [chlorine dioxide solution, chlorine dioxide]
Wound of rabbit
  effect on wound in animal test: speeding haemostasis and promoting healing on wound
[1]; Day 7
  BRt: BrdU-positive (migrating) cells in treatment group relative to model group = 100%: 121.0%
[1]; Day 7, model group 136.56 ± 15.63, sham 2.85 ± 1.05, diluted solution via carotid artery once a day, ten days
  number of BrdU-positive cells in the SVZ region, migration (mean±SD): 164.61 ± 16.3 No. cells/mm2
[1]; Day 14
  BRt: BrdU-positive (migrating) cells in treatment group relative to model group = 100%: 144.7%
[1]; Day 14, model group 78.6 ± 8.5, sham 3.39 ± 1.35
  number of BrdU-positive cells in the SVZ region, migration (mean±SD): 112.2 ± 10.6 No. cells/mm2
[1]; Day 21
  BRt: BrdU-positive (migrating) cells in treatment group relative to model group = 100%: 227.1%
[1]; Day 21, model group 34.9 ± 5.48, sham 3.11 ± 1.05
  number of BrdU-positive cells in the SVZ region, migration (mean±SD): 75.3 ± 8.39 No. cells/mm2
[1]; treatment group, in model group only on the surface of the SVZ region
  distribution of BrdU-positive cells in SVZ region: widely distributed from the surface to interior of the SVZ region
wound
  effects compared with normal saline in wound irrigation: promote healing and reduce scar formation
Helicobacter pylori; rapid urease test after 30 days
  HP negative conversing (%): 96.6%
Helicobacter pylori; rapid urease test of gastric mucosa after 30 days
  HP negative conversing (No.): 29
[2]; Day 1, model group 3, NaClO2 7.47% + citric acid 16.7% 1:1 diluted five times, carotid artery once a day for ten days after the second day
  neural function score (median): 3
[2]; Day 2, model group 3, diluted solution via carotid artery once a day for ten days after the second day
  neural function score (median): 3
[2]; Day 3, model group 3, diluted solution via carotid artery once a day for ten days after the second day
  neural function score (median): 2
[2]; Day 4, model group 2, diluted solution via carotid artery once a day for ten days after the second day
  neural function score (median): 2
[2]; Day 5, model group 2, diluted solution via carotid artery once a day for ten days after the second day
  neural function score (median): 1
[2]; Day 6, model group 2, diluted solution via carotid artery once a day for ten days after the second day
  neural function score (median): 1
[2]; Day 7, model group 2, diluted solution via carotid artery once a day for ten days after the second day
  neural function score (median): 1
[2]; Day 8, model group 2, diluted solution via carotid artery once a day for ten days after the second day
  neural function score (median): 0
[2]; Day 9, model group 1, diluted solution via carotid artery once a day for ten days after the second day
  neural function score (median): 0
[2]; Day 10, model group 1, diluted solution via carotid artery once a day for ten days after the second day
  neural function score (median): 0
[2]; Day 11, model group 1, diluted solution via carotid artery once a day for ten days after the second day
  neural function score (median): 0
[2]; Day 12, model group 1, diluted solution via carotid artery once a day for ten days after the second day
  neural function score (median): 0
[2]; Day 13, model group 1, diluted solution via carotid artery once a day for ten days after the second day
  neural function score (median): 0
[2]; Day 14, model group 1, diluted solution via carotid artery once a day for ten days after the second day
  neural function score (median): 0
[2]; Day 15, model group 1, diluted solution via carotid artery once a day for ten days after the second day
  neural function score (median): 0
[2]; Day 16, model group 1, diluted solution via carotid artery once a day for ten days after the second day
  neural function score (median): 0
[2]; Day 17, model group 1, diluted solution via carotid artery once a day for ten days after the second day
  neural function score (median): 0
[2]; Day 18, model group 1, diluted solution via carotid artery once a day for ten days after the second day
  neural function score (median): 0
[2]; Day 19, model group 1, diluted solution via carotid artery once a day for ten days after the second day
  neural function score (median): 0
[2]; Day 20, model group 1, diluted solution via carotid artery once a day for ten days after the second day
  neural function score (median): 0
[2]; Day 21, model group 1, diluted solution via carotid artery once a day for ten days after the second day
  neural function score (median): 0**
[2]; significant particularly on day 7, 8, 9 and 16 after operation
  onset of recovery of neural function, treatment group vs model group: earlier than that in the model group
Gastric ulcer; 30 hp-positive gastric ulcer patients per group, administered for a consecutive week, test capsule NaClO2 20%/NaCl 5% + citric acid 30% 1:1, one pill three times a day
  Symptoms disappear after a week (No.): 30
Gastric ulcer; 30 patients per group
  Effective after 30 d (%): 3.3%
  Healing after 30 d (%): 3.3%
Gastric ulcer; 30 patients per group, administered for a consecutive week
  Symptoms disappear after a week (%): 100%
Gastric ulcer; 30 patients per group, almost healing: more than 90% ulceration healed
  Healing after 30 d (No.): 1
Gastric ulcer; 30 patients per group, gastroscopy
  Complete healing after 30 d (%): 93.3%
Gastric ulcer; 30 patients per group, gastroscopy, administered for a consecutive week
  Complete healing after 30 d (No.): 28
Gastric ulcer; 30 patients per group, more than half of ulcer surface shrink
  Effective after 30 d (No.): 1
